{"source": "patent US20220409628A1", "about": "“18-MC FOR TREATING OBESITY” (Mind Medicine, Inc., priority 2021, published 2022)", "origin": "cited, not measured here", "key": {"[1]": {"details": "in vivo"}, "rats [2]": {"tested_on": "rats", "details": "acute administration"}, "rats [3]": {"tested_on": "rats", "details": "acute administration, 10-40 mg/kg i.p."}, "[4]": {"details": "U.S. Pat. No. 6,780,871 to Glick, et al."}, "female rats": {"tested_on": "female rats", "details": "pretreatment 20 mg/kg i.p., ghrelin 1 μg lateral ventricle"}, "[5]": {"tested_on": "extracellular dopamine in the nucleus accumbens", "details": "both 20 and 40 mg/kg, ghrelin 2 μg intraventral tegmental area"}, "rats [6]": {"tested_on": "rats", "details": "unlimited access to sucrose (30%), chronic treatment 20 mg/kg i.p."}, "male rats": {"tested_on": "male rats", "details": "repeated administration 20 mg/kg i.p."}}}
{"smiles": "COCC[C@H]1CC2CN3CCc4c([nH]c5ccccc45)[C@](C(=O)OC)(C2)[C@H]13", "note": "[18-MC, 18-methoxycoronaridine]", "values": [{"measurement": "conditioned taste aversion to sucrose", "setting": "[1]", "result": "does not induce"}, {"measurement": "ad libitum ingestion of sucrose, saccharin, and saline", "setting": "rats [2]; 10-40 mg/kg i.p.", "result": "decreased ad libitum ingestion"}, {"measurement": "consumption of water when palatable fluids were not available", "setting": "rats [2]; highest dose", "result": "reduced consumption of water"}, {"measurement": "operant responding for sucrose", "setting": "rats [3]", "result": "reduced operant responding for sucrose"}, {"measurement": "self-administration of morphine, cocaine, methamphetamine, nicotine, and sucrose", "setting": "[4]", "result": "reducing self-administration"}, {"measurement": "ghrelin-induced increases in sucrose (5%) intake", "setting": "female rats", "result": "blocked ghrelin-induced increases"}, {"measurement": "ghrelin-induced increases in extracellular dopamine in the nucleus accumbens", "setting": "[5]", "result": "prevented"}, {"measurement": "consumption of sucrose", "setting": "rats [6]", "result": "reduced consumption of sucrose"}, {"measurement": "fat deposition", "setting": "rats [6]", "result": "decreased fat deposition"}, {"measurement": "food intake", "setting": "rats [6]", "result": "not altering food intake"}, {"measurement": "sucrose-induced increases in body weight", "setting": "rats [6]", "result": "prevented sucrose-induced increases in body weight"}, {"measurement": "deposition of fat", "setting": "ghrelin-treated rats", "result": "no effect"}, {"measurement": "serum levels of glucose, triglycerides, and cholesterol", "setting": "ghrelin-treated rats", "result": "no effect"}, {"measurement": "weight gain", "setting": "male rats; both sucrose-consuming and control animals", "result": "attenuated weight gain"}, {"measurement": "food or fluid intake", "setting": "male rats", "result": "without altering food or fluid intake"}]}
